Data set [1] relates to HCT-116. Briefly: Induction of apoptosis in human HCT-116 cells assessed as caspase-3 activation incubated for 24 hrs. The format is functional, cell-based. The note with it: dose 2.5-10 µM.
The target in data set [2] is Indoleamine 2,3-dioxygenase 1 (Mus musculus) (UniProt P28776). In words: In vivo inhibition of IDO1 in BALB/c mouse implanted with mouse CT-26 cells assessed as reduction in tumor Kyn level at 60 mg/kg, po administered once daily by LC-MS/MS analysis. The format is functional, organism-based.
In data set [3] the test system is HeLa. In words: Cytotoxicity against human HeLa cells transfected with IDO1 siRNA incubated for 24 hrs by CCK-8 assay (reference value: 9.74 +/- 1.64 uM). Format: functional, cell-based.
For data set [4], the system named is CT26. In words: Antitumor activity against mouse CT26 cells implanted in athymic nude BALB/c mouse assessed as increase in CTL proliferation by measuring Ki67 expression at 15 to 60 mg/kg, ig administered daily for 28 days and measured every 4 days by flow cytometry analysis. Format: functional, organism-based. The note with it: dose 15-60 mg/kg, time 28.0 day. For orientation: A flow cytometer gives signals particle by particle.

The target in data set [5] is Indoleamine 2,3-dioxygenase 1 (Mus musculus) (UniProt P28776). Briefly: In vivo inhibition of IDO1 in BALB/c mouse implanted with mouse CT-26 cells assessed as increase in tumor Trp level at 60 mg/kg, po administered once daily by LC-MS/MS analysis. The format is functional, organism-based.
For data set [6], the system named is HCT-116. Briefly: Cytotoxicity against TrxR1 knockdown human HCT-116 cells incubated for 24 hrs by CCK-8 assay (reference value: 3.08 +/- 0.55 uM). The format is functional, cell-based. The note with it: HCT-116, 24 h.
Data set [7] relates to CT26. In words: Antitumor activity against ig dosed mouse CT26 cells implanted in […] BALB/c mouse assessed as reduction in tumor volume administered daily for 28 days and measured every 4 days. Format: functional, organism-based. The note with it: dose 15-60 mg/kg, time 28.0 day.
Data set [8] addresses Indoleamine 2,3-dioxygenase 1 (Mus musculus) (UniProt P28776). In words: In vivo inhibition of IDO1 in BALB/c mouse implanted with mouse CT-26 cells assessed as reduction in plasma Kyn level at 60 mg/kg, po administered once daily by LC-MS/MS analysis. The format is functional, organism-based.
For data set [9], the system named is HCT-116. Briefly: Antitumor activity against human HCT-116 cells xenografted in ig dosed athymic nude BALB/c mouse assessed as tumor growth inhibition administered daily for 28 days and measured every 4 days. The format is functional, organism-based. The note with it: dose 15-60 mg/kg, time 28.0 day. On the technique in general: In xenograft studies the graft and the host belong to different species.

Data set [10] relates to HCT-116. Briefly: Antitumor activity against human HCT-116 cells xenografted in athymic nude BALB/c mouse assessed as increase in necrosis of tumor cells at 15 to 60 mg/kg, ig administered daily for 28 days and measured every 4 days. Format: functional, organism-based. The note with it: dose 15-60 mg/kg, time 28.0 day.
Data set [11] has as its system HCT-116. Briefly: Antitumor activity against human HCT-116 cells xenografted in athymic nude BALB/c mouse assessed as increase in apoptotic cells at 15 to 60 mg/kg, ig administered daily for 28 days and measured every 4 days by tunel assay. The format is functional, organism-based. The note with it: dose 15-60 mg/kg, time 28.0 day.
The test system of data set [12] is HeLa. In words: Cytotoxicity against human HeLa cells incubated for 24 hrs CCK-8 assay. The format is functional, cell-based. For orientation: Tetrazolium assays rely on reduction of a dye to a coloured formazan, in cell work by metabolically active cells.
Data set [13] concerns HCT-116. In words: Cytotoxicity against human HCT-116 cells incubated for 24 hrs CCK-8 assay. The format is functional, cell-based. The note with it: HCT-116, 24 h.
The target in data set [14] is T1, Thioredoxin reductase 1, cytoplasmic (Rattus norvegicus, UniProt O89049).
T1 sequence (O89049 whole entry): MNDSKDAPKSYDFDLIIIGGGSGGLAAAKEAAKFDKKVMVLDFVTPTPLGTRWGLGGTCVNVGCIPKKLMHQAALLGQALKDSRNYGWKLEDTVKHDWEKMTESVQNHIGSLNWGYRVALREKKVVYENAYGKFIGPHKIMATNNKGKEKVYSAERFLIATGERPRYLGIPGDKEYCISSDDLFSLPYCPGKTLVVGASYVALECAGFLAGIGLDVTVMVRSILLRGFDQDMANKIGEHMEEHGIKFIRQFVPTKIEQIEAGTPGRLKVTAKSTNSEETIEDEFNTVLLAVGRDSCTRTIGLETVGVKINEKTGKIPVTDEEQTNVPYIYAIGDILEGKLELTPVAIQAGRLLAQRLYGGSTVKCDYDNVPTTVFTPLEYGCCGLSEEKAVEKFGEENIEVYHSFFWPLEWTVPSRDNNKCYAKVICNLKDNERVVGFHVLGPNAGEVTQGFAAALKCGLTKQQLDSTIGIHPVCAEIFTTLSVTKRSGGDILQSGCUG
Briefly: Inhibition of recombinant rat TrxR1 incubated for 1 hr in presence of NADPH by microplate reader analysis.

Data set [15] can be described thus: Toxicity in athymic BALB/c mouse xenografted with human HCT-116 cells assessed as change in kidney morphology at 15 to 60 mg/kg, ig administered daily for 28 days and measured every 4 days. Format: organism-based. The note with it: in vivo, po, 672 h, dose 15-60 mg/kg, time 28 day.
In data set [16] the test system is HCT-116. In words: Induction of apoptosis in human HCT-116 cells assessed as caspase-7 activation incubated for 24 hrs. Format: functional, cell-based. The note with it: dose 2.5-10 µM.
Data set [17] has as its system HCT-116. Briefly: Induction of apoptosis in human HCT-116 cells assessed as apoptotic rate at 10 uM incubated for 24 hrs by Annexin-V/PI staining based flow cytometry analysis. Format: functional.
Data set [18] deals with Indoleamine 2,3-dioxygenase 1 (Mus musculus) (UniProt P28776). In words: In vivo inhibition of IDO1 in BALB/c mouse implanted with mouse CT-26 cells assessed as reduction in tumor Kyn/Trp ratio at 60 mg/kg, po administered once daily by LC-MS/MS analysis. Format: functional, organism-based.
Data set [19] relates to HeLa. In words: Induction of cell cycle arrest in human HeLa cells assessed as G1/S phase arrest at 2.5 to 10 uM incubated for 24 hrs by PI staining based flow cytometry analysis. The format is functional. The note with it: dose 2.5-10 µM.
The target of data set [20] is Thioredoxin reductase 2, mitochondrial (Homo sapiens, UniProt Q9NNW7). Briefly: Inhibition of TrxR2 (unknown origin) incubated for 1 hr in presence of NADPH by microplate reader analysis.
Data set [21] relates to HCT-116. In words: Antiproliferative activity against human HCT-116 cells assessed as cell growth inhibition incubated for 48 hrs by CCK-8 assay. The format is functional, cell-based. The note with it: HCT-116, 48 h.
Data set [22] deals with Indoleamine 2,3-dioxygenase 1 (Homo sapiens, UniProt P14902). Briefly: Inhibition of IDO1 in human HCT-116 cells using L-Tryptophan as substrate incubated for 24 hrs by microplate reader analysis. The format is cell-based.
A short description of data set [23]: Toxicity in athymic BALB/c mouse xenografted with human HCT-116 cells assessed as change in liver morphology at 15 to 60 mg/kg, ig administered daily for 28 days and measured every 4 days. The format is organism-based. The note with it: in vivo, po, 672 h, dose 15-60 mg/kg, time 28 day.
For data set [24], the target named is Indoleamine 2,3-dioxygenase 1 (Mus musculus) (UniProt P28776). In words: In vivo inhibition of IDO1 in C57BL/6 mouse assessed as reduction in plasma Kyn/Trp ratio at 60 mg/kg, po administered once daily by LC-MS/MS analysis. The format is functional, organism-based.

Molecules are shown by their SMILES. Active and inactive are the calls of the source. The rule behind the calls is not given here.

Chain of Indoleamine 2,3-dioxygenase 1 (Mus musculus) (P28776 whole entry, looked up): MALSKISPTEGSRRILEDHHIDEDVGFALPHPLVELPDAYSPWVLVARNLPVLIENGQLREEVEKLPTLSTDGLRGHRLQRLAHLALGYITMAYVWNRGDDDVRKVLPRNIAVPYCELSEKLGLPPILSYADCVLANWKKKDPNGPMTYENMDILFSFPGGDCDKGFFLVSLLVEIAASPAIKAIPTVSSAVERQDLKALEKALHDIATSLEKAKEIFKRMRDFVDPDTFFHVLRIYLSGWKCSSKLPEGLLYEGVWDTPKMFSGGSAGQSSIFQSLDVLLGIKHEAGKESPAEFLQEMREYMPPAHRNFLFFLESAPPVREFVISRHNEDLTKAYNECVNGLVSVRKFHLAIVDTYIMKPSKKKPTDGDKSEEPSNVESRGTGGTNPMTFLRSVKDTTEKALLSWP
Chain of Thioredoxin reductase 2, mitochondrial (Q9NNW7 whole entry): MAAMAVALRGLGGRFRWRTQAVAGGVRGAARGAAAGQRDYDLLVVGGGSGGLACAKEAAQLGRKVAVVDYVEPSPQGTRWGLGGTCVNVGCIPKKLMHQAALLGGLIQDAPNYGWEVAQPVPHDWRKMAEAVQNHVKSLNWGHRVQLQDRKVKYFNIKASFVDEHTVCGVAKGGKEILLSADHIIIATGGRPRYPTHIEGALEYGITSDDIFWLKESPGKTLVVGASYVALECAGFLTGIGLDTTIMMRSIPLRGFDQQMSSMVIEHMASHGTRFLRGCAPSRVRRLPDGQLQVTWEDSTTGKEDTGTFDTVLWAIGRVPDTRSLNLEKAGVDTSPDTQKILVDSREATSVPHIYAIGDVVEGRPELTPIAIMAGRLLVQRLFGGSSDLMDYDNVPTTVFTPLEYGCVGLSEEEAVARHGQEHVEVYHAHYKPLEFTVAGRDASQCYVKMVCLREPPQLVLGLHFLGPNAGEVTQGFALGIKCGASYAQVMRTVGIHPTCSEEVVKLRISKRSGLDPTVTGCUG
Chain of Indoleamine 2,3-dioxygenase 1 (P14902 whole entry): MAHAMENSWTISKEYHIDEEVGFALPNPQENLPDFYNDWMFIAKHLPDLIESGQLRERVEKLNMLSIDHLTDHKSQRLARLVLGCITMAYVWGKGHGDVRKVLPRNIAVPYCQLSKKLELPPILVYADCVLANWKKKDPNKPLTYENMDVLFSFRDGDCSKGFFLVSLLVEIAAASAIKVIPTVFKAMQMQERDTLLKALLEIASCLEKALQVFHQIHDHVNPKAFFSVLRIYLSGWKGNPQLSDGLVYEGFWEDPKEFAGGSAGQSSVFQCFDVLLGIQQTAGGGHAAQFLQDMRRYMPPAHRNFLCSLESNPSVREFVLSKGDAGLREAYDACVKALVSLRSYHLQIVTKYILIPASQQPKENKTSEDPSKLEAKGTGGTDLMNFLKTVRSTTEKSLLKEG

A word on the IC50: it is the concentration at which inhibition is half-maximal. Broadly, the EC50 is the concentration needed to bring the measured effect to its halfway point. For the molecule `O=C(Cc1ccc(O)cc1)Nc1nnc(CCCNc2nonc2/C(=N\O)Nc2ccc(F)c(Br)c2)s1`, the Activity entry is “Dose-Dependent Effect” with HCT-116 [1]; “Dose-Dependent Effect” in the data set on CT26 [7]; “Non-Toxic” in data set [15]; “Dose-Dependent Effect” in the data set with HCT-116 [16]; 60.55% with HCT-116 [17]; “Non-Toxic” in data set [23]. In addition, the result (in data set [2]; in the data set with CT26 [4]; in data set [5]; in [8]; with HCT-116 [9]; with HCT-116 [10]) was Active. For the same molecule, the result (with HCT-116 [11]; in data set [18]; in the data set with HeLa [19]; in data set [24]) was Active. Also, the IC50 with HeLa [3] was 10.1 µM; in the data set on HCT-116 [6] it was 1.52 µM; with HeLa [12], 16.1 µM; in the data set on HCT-116 [13], 3.33 µM; in [14], 3 µM; in data set [20] it was greater than 500 µM. The IC50 in the data set with HCT-116 [21] came to 3.44 µM. Also, the EC50 in data set [22] amounted to 34.1 µM.

For the origin of these results see ChEMBL document CHEMBL5385848, “Discovery of novel hydroxyamidine based indoleamine 2,3-dioxygenase 1 (IDO1) and thioredoxin reductase 1 (TrxR1) dual inhibitors” (Eur J Med Chem, 2023).
